What all share (assay type): physicochemical
The nature of series [1]: Dissolution test of poorly-soluble substances, 2nd fluid for disintegration test (pH 6.8) of the Japanese Pharmacopoeia. As to the method: (§1) From initiation of the test, the mixed solution was stirred with a stirrer having a length of 15 mm. The rotation number of the stirrer was 120 rpm, and all of the tests were conducted in a thermostat at 37±0.5° C. Two types of test solutions, namely, distilled water and 2nd fluid for disintegration test (pH 6.8) of the Japanese Pharmacopoeia were used. As such 2nd fluid for disintegration test of the Japanese Pharmacopoeia, a solution prepared by diluting the 10-fold concentration solution of Kanto Kagaku Co., Ltd. with distilled water was used.
(§2) A comparative test was carried out in the same manner as that described above, with the exception that, instead of a substance with improved aqueous solubility coated with hydroxyapatite microparticles and with a pH adjuster and/or a surfactant, a poorly-soluble substance or the like was used in the same amount as the substance with improved aqueous solubility.
(§3) […] The thus sampled solution was centrifuged at 12,000 rpm for 5 minutes. Thereafter, the substance with improved aqueous solubility and hydroxyapatite microparticles, which had not been dissolved in the solution, were removed. In the case of the comparative test, the poorly-soluble substance or the like, which had not been dissolved in the solution, was removed. An aliquot of this supernatant was immediately frozen. The frozen sample was freeze-dried, and it was then used as a sample in the measurement of the amount of the substance with improved aqueous solubility, which had been dissolved in the test solution. The dissolved poorly-soluble substance was measured mainly using a dual wavelength absorption photometer.

Series [2] is described as follows: pH of aqueous solution after 60 minutes in dissolution test using distilled water. As to the method: Moreover, as described above, since the pH of a local portion that is contacted with a poorly-soluble substance is more important than the pH of a solution as a whole, when an acidic substance is dissolved, desired effects can be obtained even though the pH is not extremely high. It is sufficient if a pH adjuster is used such that the pH of an aqueous solution of a substance with improved aqueous solubility becomes pH 8 or less. […] Herein, the pH of an aqueous solution indicates a pH value that is measured 60 minutes after the addition of a target substance to 50 mL of distilled water in an amount 2 times larger than the substance dissolved in 360 minutes. More specifically, the pH of an aqueous solution indicates a pH value that is measured according to [Dissolution test of poorly-soluble substances] in the below-mentioned Examples.
as §1

Series [3] can be described thus: Dissolution test of poorly-soluble substances, distilled water. As to the method: as §1, §2, §3

The text below walks through data of US9248103B2, “Method for improving water solubility of slightly soluble substance” (Kabushiki Kaisha Sangi, priority 2012, dated 2016).
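Further: Comparative example rows not the inventive coated formulation.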

On to `CCCCNC(=O)NS(=O)(=O)c1ccc(C)cc1` [1-5, Tolbutamide], for which, in series [1], the “Dissolved amount, elution time 1 min” value was determined as 637.3 µg/mL; the “Dissolved amount, elution time 3 min” value came out at 1597.2 µg/mL; the “Dissolved amount, elution time 10 min” value is 2041.9 µg/mL; the “Dissolved amount, elution time 30 min” value was found to be 2141.1 µg/mL. Also, in series [1], the “Dissolved amount, elution time 60 min” value turned out to be 2449.4 µg/mL; the “Dissolved amount, elution time 180 min” value was found to be 2432.9 µg/mL; the “Dissolved amount, elution time 360 min” value worked out at 2429.1 µg/mL. Moreover, the “pH at 60 minutes after dissolution” value in series [2] (Tolbutamide) is 4.3. For the same compound, in series [3], the “Dissolved amount, elution time 1 min” value came to 48.8 µg/mL; the “Dissolved amount, elution time 3 min” value was 49.3 µg/mL; the “Dissolved amount, elution time 10 min” value amounted to 51.3 µg/mL; the “Dissolved amount, elution time 30 min” value came out at 56.6 µg/mL. Besides, in series [3], the “Dissolved amount, elution time 60 min” value stood at 50.5 µg/mL; the “Dissolved amount, elution time 180 min” value was 52.9 µg/mL; the “Dissolved amount, elution time 360 min” value worked out at 68.6 µg/mL.
On to `NC(N)=Nc1nc(CSCCC(N)=NS(N)(=O)=O)cs1` [3-4, Famotidine], for which, in series [1], the “Dissolved amount, elution time 3 min” value turned out to be 2286.6 µg/mL; the “Dissolved amount, elution time 10 min” value is 2541.7 µg/mL; the “Dissolved amount, elution time 30 min” value worked out at 2600.9 µg/mL; the “Dissolved amount, elution time 60 min” value amounted to 2667.9 µg/mL. Also, in series [1], the “Dissolved amount, elution time 180 min” value was found to be 2509.7 µg/mL and the “Dissolved amount, elution time 360 min” value was 2410.4 µg/mL. The “pH at 60 minutes after dissolution” value in series [2] (Famotidine) was found to be 8.4. For the same compound, in series [3], the “Dissolved amount, elution time 1 min” value turned out to be 1162.9 µg/mL; the “Dissolved amount, elution time 3 min” value came to 1502.6 µg/mL; the “Dissolved amount, elution time 10 min” value came to 1416.8 µg/mL; the “Dissolved amount, elution time 180 min” value turned out to be 1509.8 µg/mL. The “Dissolved amount, elution time 360 min” value in series [3] was 1497.4 µg/mL.
Regarding `COc1cc(Cc2cnc(N)nc2N)cc(OC)c1OC` [4-3, Trimethoprim], in series [1], the “Dissolved amount, elution time 1 min” value came to 807.8 µg/mL; the “Dissolved amount, elution time 3 min” value is 1160.4 µg/mL; the “Dissolved amount, elution time 10 min” value came out at 1291.7 µg/mL; the “Dissolved amount, elution time 30 min” value turned out to be 1344.0 µg/mL. Besides, in series [1], the “Dissolved amount, elution time 60 min” value came out at 1324.8 µg/mL; the “Dissolved amount, elution time 180 min” value was 1296.5 µg/mL; the “Dissolved amount, elution time 360 min” value came out at 1321.9 µg/mL. Moreover, in series [2] (Trimethoprim), the “pH at 60 minutes after dissolution” value is listed as 8.4. In series [3], the “Dissolved amount, elution time 1 min” value was 354.6 µg/mL; the “Dissolved amount, elution time 3 min” value turned out to be 531.0 µg/mL; the “Dissolved amount, elution time 10 min” value stood at 685.0 µg/mL; the “Dissolved amount, elution time 30 min” value was found to be 677.9 µg/mL. In series [3], the “Dissolved amount, elution time 60 min” value came out at 671.8 µg/mL; the “Dissolved amount, elution time 180 min” value came to 672.0 µg/mL; the “Dissolved amount, elution time 360 min” value is 656.3 µg/mL.
For the compound `CC(C)(Sc1cc(C(C)(C)C)c(O)c(C(C)(C)C)c1)Sc1cc(C(C)(C)C)c(O)c(C(C)(C)C)c1` [5-2, Probucol], in series [1] (Probucol), the “Dissolved amount, elution time 1 min” value is 4.7 µg/mL; the “Dissolved amount, elution time 3 min” value amounted to 14.9 µg/mL; the “Dissolved amount, elution time 10 min” value is 19.9 µg/mL; the “Dissolved amount, elution time 30 min” value is 21.2 µg/mL. In series [1] (Probucol), the “Dissolved amount, elution time 60 min” value amounted to 21.8 µg/mL; the “Dissolved amount, elution time 180 min” value was determined as 26.8 µg/mL; the “Dissolved amount, elution time 360 min” value came out at 28.0 µg/mL. Further, in series [3] (Probucol), the “Dissolved amount, elution time 1 min” value came to 0.7 µg/mL; the “Dissolved amount, elution time 3 min” value worked out at 2.7 µg/mL; the “Dissolved amount, elution time 10 min” value was 3.7 µg/mL; the “Dissolved amount, elution time 30 min” value turned out to be 6.1 µg/mL. Besides, in series [3] (Probucol), the “Dissolved amount, elution time 60 min” value came to 7.6 µg/mL; the “Dissolved amount, elution time 180 min” value was 8.3 µg/mL; the “Dissolved amount, elution time 360 min” value is 9.7 µg/mL.
Turning to `CCN1CCCC1CNC(=O)c1cc(S(N)(=O)=O)ccc1OC` (centres unmarked) [6-4, Sulpiride], in series [2] (Sulpiride), the “pH at 60 minutes after dissolution” value is 9.3.
In the case of `CC(=O)SC[C@@H](C)C(=O)N1CCC[C@H]1C(=O)N[C@@H](Cc1ccccc1)C(=O)O` [8-1, Alacepril], in series [1] (Alacepril), the “Dissolved amount, elution time 3 min” value amounted to 2311.1 µg/mL; the “Dissolved amount, elution time 10 min” value amounted to 2514.7 µg/mL; the “Dissolved amount, elution time 30 min” value worked out at 2525.0 µg/mL; the “Dissolved amount, elution time 120 min” value was 2588.4 µg/mL. Also, the “pH at 60 minutes after dissolution” value in series [2] (Alacepril) came out at 2.9. In addition, in series [3] (Alacepril), the “Dissolved amount, elution time 3 min” value turned out to be 526.2 µg/mL; the “Dissolved amount, elution time 10 min” value came to 805.6 µg/mL; the “Dissolved amount, elution time 30 min” value was determined as 931.2 µg/mL; the “Dissolved amount, elution time 120 min” value was 994.9 µg/mL. For the same compound, the “Dissolved amount, elution time 360 min” value in series [3] (Alacepril) turned out to be 996.5 µg/mL.
On to `CC[C@H]1OC(=O)[C@H](C)[C@@H](O[C@H]2C[C@@](C)(OC)[C@@H](O)[C@H](C)O2)[C@H](C)[C@@H](O[C@@H]2O[C@H](C)C[C@H](N(C)C)[C@H]2O)[C@](C)(O)C[C@@H](C)C(=O)[C@H](C)[C@@H](O)[C@]1(C)O` [9-1, Erythromycin], for which, in series [1] (Erythromycin), the “Dissolved amount, elution time 3 min” value came to 2556.3 µg/mL; the “Dissolved amount, elution time 10 min” value worked out at 4984.2 µg/mL; the “Dissolved amount, elution time 30 min” value is 5103.6 µg/mL; the “Dissolved amount, elution time 120 min” value was 5904.1 µg/mL. In addition, the “Dissolved amount, elution time 360 min” value in series [1] (Erythromycin) was 6044.7 µg/mL. In addition, the “pH at 60 minutes after dissolution” value in series [2] (Erythromycin) was found to be 9.6. Further, in series [3] (Erythromycin), the “Dissolved amount, elution time 3 min” value was determined as 635.0 µg/mL; the “Dissolved amount, elution time 10 min” value is 861.6 µg/mL; the “Dissolved amount, elution time 30 min” value was found to be 944.7 µg/mL; the “Dissolved amount, elution time 120 min” value was 927.7 µg/mL. Further, in series [3] (Erythromycin), the “Dissolved amount, elution time 360 min” value worked out at 846.1 µg/mL.
As for `O=C(CCCN1CCC(O)(c2ccc(Cl)cc2)CC1)c1ccc(F)cc1` [10-1, Haloperidol], in series [1] (Haloperidol), the “Dissolved amount, elution time 3 min” value was 23.9 µg/mL; the “Dissolved amount, elution time 10 min” value was determined as 35.6 µg/mL; the “Dissolved amount, elution time 30 min” value worked out at 45.2 µg/mL; the “Dissolved amount, elution time 120 min” value amounted to 50.1 µg/mL. Further, the “Dissolved amount, elution time 360 min” value in series [1] (Haloperidol) is 48.9 µg/mL. The “pH at 60 minutes after dissolution” value in series [2] (Haloperidol) worked out at 8.1. Also, in series [3] (Haloperidol), the “Dissolved amount, elution time 3 min” value came to 8.2 µg/mL; the “Dissolved amount, elution time 10 min” value is 10.0 µg/mL; the “Dissolved amount, elution time 30 min” value turned out to be 11.3 µg/mL; the “Dissolved amount, elution time 120 min” value turned out to be 12.8 µg/mL. Also, the “Dissolved amount, elution time 360 min” value in series [3] (Haloperidol) came out at 13.1 µg/mL.
